Drawing on ChEMBL document CHEMBL1129098, “Structure-activity dependency of new bacterial tryptophanyl tRNA synthetase inhibitors” (Bioorg Med Chem Lett, 1996), this text covers I50 and MIC for 20 molecules.

Structures are written as SMILES. In brackets after ≈: the same amount, converted by molar mass.

The nature of experiment [1]: Inhibition of tryptophanyl tRNA synthetase isolated from Staphylococcus aureus.
The test system of the next experiment is Staphylococcus aureus. Nature of the experiment: Antibacterial activity against Staphylococcus aureus. Format: functional.

As for `CNC1=NC(=O)[C@H]([C@H](CC(=O)OC(C)(C)C)c2c[nH]c3ccccc23)O1`, the I50 in experiment [1] is > 100000 ng/mL. Besides, in the experiment with Staphylococcus aureus, the MIC (as a rule, the smallest concentration in the dilution series that meets the test's criterion for growth inhibition) is > 512 µg/mL.
In experiment [1], `CNC1=NC(=O)[C@H](C(C)(C)c2c[nH]c3ccccc23)O1` gave an I50 of 580 ng/mL. In addition, the MIC with Staphylococcus aureus is 32 µg/mL (≈ 118 µM).
On the same counts, the results for `CNC1=NC(=O)[C@H]([C@H](CN)c2c[nH]c3ccccc23)O1` are > 100000 ng/mL and > 512 µg/mL.
Take `CNC1=NC(=O)[C@H]([C@@H](O)c2c[nH]c3ccccc23)O1`: the I50 in experiment [1] turned out to be 44000 ng/mL. Also, the MIC against Staphylococcus aureus was > 64 µg/mL.
On to `CNC1=NC(=O)[C@H]([C@@H](C)c2c[nH]c3ccccc23)O1`, for which the I50 in experiment [1] was found to be 500 ng/mL. In addition, the MIC in the experiment with Staphylococcus aureus was determined as 8 µg/mL (≈ 31.1 µM).
On to `CNC1=NC(=O)[C@H]([C@@H](CC(=O)OC(C)(C)C)c2c[nH]c3ccccc23)O1`, for which, in experiment [1], the I50 is > 100000 ng/mL. For the same molecule, the MIC against Staphylococcus aureus was > 512 µg/mL.
On the same counts, the results for `CC[C@@H](c1c[nH]c2ccccc12)[C@@H]1OC(NC)=NC1=O` are 22000 ng/mL and > 512 µg/mL.
The molecule `CNC1=NC(=O)[C@H]([C@H](C[N+](=O)[O-])c2c[nH]c3ccccc23)O1` returned an I50 in experiment [1] of 2300 ng/mL. This molecule returned an MIC with Staphylococcus aureus of 64 µg/mL (≈ 212 µM).
On the same counts, the results for `CC[C@H](c1c[nH]c2ccccc12)[C@@H]1OC(NC)=NC1=O` are 250 ng/mL and 64 µg/mL (≈ 236 µM).
Molecule `CNC1=NC(=O)[C@](C)([C@H](C)c2c[nH]c3ccccc23)O1` came in with an I50 in experiment [1] of 1200 ng/mL. Also, 64 µg/mL (≈ 236 µM) was the least that counted as inhibitory in the experiment with Staphylococcus aureus (MIC).
Take `CNC1=NC(=O)[C@H]([C@@H](CC(=O)O)c2c[nH]c3ccccc23)O1`: the I50 in experiment [1] was > 100000 ng/mL. Also, the MIC with Staphylococcus aureus is > 512 µg/mL.
On the same counts, the results for `CNC1=NC(=O)[C@H]([C@H](CC(=O)O)c2c[nH]c3ccccc23)O1` are > 100000 ng/mL and > 512 µg/mL.
Turning to `CNC1=NC(=O)[C@H]([C@](C)(O)c2c[nH]c3ccccc23)O1`, in experiment [1], the I50 was > 100000 ng/mL. Moreover, the MIC in the experiment with Staphylococcus aureus is > 64 µg/mL.
For `CNC1=NC(=O)[C@H]([C@@](C)(O)c2c[nH]c3ccccc23)O1`, in that order: 46 ng/mL and 0.25 µg/mL (≈ 0.915 µM).
For `CNC1=NC(=O)[C@H]([C@H](/C=N\O)c2c[nH]c3ccccc23)O1`, in that order: > 100000 ng/mL and > 512 µg/mL.
On to `CNC1=NC(=O)[C@](C)([C@@H](C)c2c[nH]c3ccccc23)O1`, for which the I50 in experiment [1] is > 100000 ng/mL. Further, the MIC in the experiment on Staphylococcus aureus was > 512 µg/mL.
For `CNC1=NC(=O)[C@H]([C@@H](C[N+](=O)[O-])c2c[nH]c3ccccc23)O1`, in that order: > 100000 ng/mL and > 64 µg/mL.
For `CNC1=NC(=O)[C@H](Cc2c[nH]c3ccccc23)O1`, in that order: 1550 ng/mL and 64 µg/mL (≈ 263 µM).
For `CNC1=NC(=O)[C@H]([C@H](O)c2c[nH]c3ccccc23)O1`, the I50 in experiment [1] came to 4000 ng/mL. Further, the MIC with Staphylococcus aureus was > 64 µg/mL.
For `CNC1=NC(=O)[C@H]([C@H](C)c2c[nH]c3ccccc23)O1` [INDOMYCIN], in that order: 16 ng/mL and 0.125 µg/mL (≈ 0.486 µM).
